Our source for the IC50 values is US11034685B2, “Aminopyridine derivatives as TAM family kinase inhibitors” (SignalChem Lifesciences Corporation, priority 2013, dated 2021).

What is called IC50 is the midpoint of a concentration-inhibition curve.

What all share (type): biochemical
Test [1] concerns the target T1, Recombinant human Tyro3 (455-end) (Homo sapiens, UniProt Q06418).
T1 construct: GST (N); made in house; host or cells: Sf9 insect cells (baculovirus)
T1 sequence (Q06418 455-890 limits assumed): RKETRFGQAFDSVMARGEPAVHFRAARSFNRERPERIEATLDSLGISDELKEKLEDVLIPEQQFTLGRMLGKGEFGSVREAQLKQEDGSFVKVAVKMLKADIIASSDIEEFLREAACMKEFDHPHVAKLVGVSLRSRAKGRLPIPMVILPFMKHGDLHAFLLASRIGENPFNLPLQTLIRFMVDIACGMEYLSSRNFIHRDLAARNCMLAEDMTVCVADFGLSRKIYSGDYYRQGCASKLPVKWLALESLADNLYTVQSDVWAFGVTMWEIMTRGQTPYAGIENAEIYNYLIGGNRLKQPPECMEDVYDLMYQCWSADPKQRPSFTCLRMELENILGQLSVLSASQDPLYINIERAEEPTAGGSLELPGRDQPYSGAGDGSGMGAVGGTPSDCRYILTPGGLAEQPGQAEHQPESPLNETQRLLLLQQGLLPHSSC
The test can be described thus: Kinase enzymatic activity assay ([33P]-ATP phosphate transfer), Tyro3. Conditions: inhibitory activity on Tyro3; class symbols. Here is the method: (§1) Preparation of Active Recombinant Kinase Proteins:
(§2) Recombinant human Tyro3 (455-end, the gene accession number NM_006293), human Axl (473-end, the gene accession number NM_021913) and human Mer (578-872, the gene accession number NM_006343) were independently expressed by baculovirus in Sf9 insect cells using an N-terminal GST tag. The recombinant proteins were stored at −70° C. in a medium containing 50 mM Tris-HCl, pH 7.5, 150 mM NaCl, 10 mM glutathione, 0.1 mM EDTA, 0.25 mM DTT, 0.1 mM PMSF and 25% glycerol. The recombinant proteins were aliquoted into smaller quantities after centrifugation to avoid repeated handling and multiple freeze/thaw cycles for the most favorable performance.
(§3) Preparation of Assay Reagents:
(§4) Kinase Assay Buffer: This buffer solution consisted of the following components: 25 mM MOPS, pH 7.2, 12.5 mM β-glycerol-phosphate, 25 mM MgCl2, 5 mM EGTA, 2 mM EDTA and DTT 0.25 mM which was added prior to use.
(§5) Kinase Dilution Buffer: Kinase Assay Buffer was diluted at a 1:4 ratio (5× dilution) with distilled water.
(§6) [^33P]-ATP assay cocktail: In a designated radioactive working area, a 250 μM [^33P]-ATP assay cocktail was prepared by the addition of the following components: 150 μL of 10 mM ATP stock solution, 100 μL [^33P]-ATP (1 mci/100 μL), 5.75 mL of kinase assay buffer. This solution was stored in 1 mL aliquots at −20 OC.
(§7) ATP stock solution (10 mM): The ATP stock solution was prepared by dissolving 55 mg of ATP in 10 mL of kinase assay buffer. It was stored in 200 μL aliquots at −20° C.
(§8) Active Kinase Stock Solution: The active recombinant kinase protein (0.1 μg/μL) was diluted with Kinase Dilution Buffer and the activity was assayed using a serial dilution method. The specific activity is expressed in nmoL/min/mg.
(§9) Substrates: poly(4:1 glu:tyr) is the substrate used for each kinase Tyro3, Axl and Mer: The peptide substrate was dissolved in water to give the final concentration of 1 mg/mL.
(§10) Test compound solution: Test compound was dissolved in DMSO to obtain a 10 mM solution. The assay solution was prepared by adding 5 μL of this solution to […] of 10% DMSO/water to obtain the final concentration of 50 μM.
(§11) The enzymatic activity of all three kinases was determined as follows. Using a 96-well plate, the wells were divided into three categories: Blank wells, […] and Test wells. In Test wells, 5 μL of the test compound solution and 5 μL of the substrate solution were added. In Control wells, 5 μL of 10% DMSO/water and 5 μL of the substrate solution were added. In Blank wells, 10 μL of 10% DMSO/water was added. To each well was added 10 μL of Active Kinase Stock Solution to make up the volume in each well to 20 μL. All test samples, controls and blanks were run in duplicate. The reaction was initiated by the addition of 5 μL of [^33P]-ATP assay cocktail, bringing the final volume up to 25 μL in every well. The mixture was incubated at room temperature for 30 minutes. The reaction was terminated by transferring 10 μL of the reaction mixture into a Millipore MultiScreen filter plate (cat. number MSPHN6B50). The filter plate was washed in a 1% phosphoric acid solution with constant gentle shaking for 15 minutes and this step was repeated once. After the plate was dried in air, scintillation fluid was added to each well and the radioactivity in each well in CPM was counted by a Microbeta TriLux. The corrected CPM in each test well was determined by subtracting the average value of Blank well values. Percentage of inhibition of the kinase enzymatic activity by the test compound was determined using the following formula: […]
(§12) The IC50 values were determined in a similar way following a serial dilution of the test compound. The percentage of inhibition at each concentration was calculated following the above formula. The IC50 was estimated from the curve of % Inhibition against Concentration in log unit using Prism 5, version 5.01.

For test [2], the target named is T2, human Axl (473-end) (Homo sapiens, UniProt P30530).
T2 construct: GST (N); made in house; host or cells: Sf9 insect cells (baculovirus)
T2 sequence (P30530 473-894 limits assumed): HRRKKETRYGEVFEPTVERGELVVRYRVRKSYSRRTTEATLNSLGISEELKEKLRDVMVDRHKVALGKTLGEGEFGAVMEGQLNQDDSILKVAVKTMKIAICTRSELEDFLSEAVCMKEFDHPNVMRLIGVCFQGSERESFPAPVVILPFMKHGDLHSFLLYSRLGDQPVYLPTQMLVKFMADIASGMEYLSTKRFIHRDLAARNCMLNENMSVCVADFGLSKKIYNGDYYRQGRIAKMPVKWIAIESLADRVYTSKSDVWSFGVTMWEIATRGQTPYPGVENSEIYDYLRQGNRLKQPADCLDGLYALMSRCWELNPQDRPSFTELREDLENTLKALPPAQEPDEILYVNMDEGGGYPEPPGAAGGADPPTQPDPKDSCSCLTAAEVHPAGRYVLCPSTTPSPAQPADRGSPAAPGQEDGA
The experiment in a line: Kinase enzymatic activity assay ([33P]-ATP phosphate transfer), Axl. Conditions: inhibitory activity on Axl; class symbols. Here is the method: as §1, §2, §3, §4, §5, §6, §7, §8, §9, §10, §11, §12

The target in test [3] is T3, human Mer (578-872) (Homo sapiens, UniProt Q12866).
T3 construct: GST (N); made in house; host or cells: Sf9 insect cells (baculovirus)
T3 sequence (Q12866 578-872): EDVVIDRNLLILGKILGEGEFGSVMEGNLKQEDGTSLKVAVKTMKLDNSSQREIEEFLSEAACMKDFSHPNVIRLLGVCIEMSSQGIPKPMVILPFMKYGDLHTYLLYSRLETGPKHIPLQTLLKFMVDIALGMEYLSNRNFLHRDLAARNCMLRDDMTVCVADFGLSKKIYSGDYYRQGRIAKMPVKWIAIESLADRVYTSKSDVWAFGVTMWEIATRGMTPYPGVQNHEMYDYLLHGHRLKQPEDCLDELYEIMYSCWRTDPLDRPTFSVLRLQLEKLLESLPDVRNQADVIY
The experiment in a line: Kinase enzymatic activity assay ([33P]-ATP phosphate transfer), Mer. Conditions: inhibitory activity on Mer; class symbols. Here is the method:
as §1, §2, §3, §4, §5, §6, §7, §8, §9, §10, §11, §12

For `Nc1ncc(-c2ccn(C3CCNCC3)c2)cc1-c1nnc(-c2c(Cl)cccc2Cl)o1` [3-(5-(2,6-dichlorophenyl)-1,3,4-oxadiazol-2-yl)-5-(1-(piperidin-4-yl)-1H-pyrrol-3-yl)pyridin-2-amine], the IC50 in test [1], in test [2] and in test [3] was under 500 nM throughout.
Take `Nc1ncc(-c2cnn(C3CCOCC3)c2)cc1-c1nnc(-c2c(Cl)cccc2Cl)o1` [3-(5-(2,6-dichlorophenyl)-1,3,4-oxadiazol-2-yl)-5-(1-(tetrahydro-2H-pyran-4-yl)-1H-pyrazol-4-yl)pyridin-2-amine]: the IC50 in test [1], in test [2] and in test [3] was under 500 nM in each case.
Turning to `Nc1ncc(-c2cn[nH]c2)cc1-c1nnc(-c2c(Cl)cccc2Cl)o1` [3-(5-(2,6-dichlorophenyl)-1,3,4-oxadiazol-2-yl)-5-(1H-pyrazol-4-yl)pyridin-2-amine], the IC50 in test [1], in test [2] and in test [3] was under 500 nM each time.
In the case of `CN1CCC(n2cc(-c3cnc(N)c(-c4ncc(-c5cccc(Cl)c5)o4)c3)cn2)CC1` [3-(5-(3-chlorophenyl)oxazol-2-yl)-5-(1-(1-methylpiperidin-4-yl)-1H-pyrazol-4-yl)pyridin-2-amine], the IC50 in test [1], in test [2] and in test [3] was under 500 nM in each case.
For `Nc1ncc(-c2cnn(C3CCNCC3)c2)cc1-c1ncc(-c2cccc(Cl)c2)o1` [3-(5-(3-chlorophenyl)oxazol-2-yl)-5-(1-(piperidin-4-yl)-1H-pyrazol-4-yl)pyridin-2-amine], the IC50 in test [1], in test [2] and in test [3] was under 500 nM each time.
For `Nc1ncc(-c2cnn(C3CCCCC3)c2)cc1-c1ncc(-c2cccc(Cl)c2)o1` [3-(5-(3-chlorophenyl)oxazol-2-yl)-5-(1-cyclohexyl-1H-pyrazol-4-yl)pyridin-2-amine], the IC50 in test [1], in test [2] and in test [3] was 1000 to 10000 nM throughout.
As for `CC(C)(C)c1ccc(-c2nnc(-c3cc(-c4cnn(C5CCNCC5)c4)cnc3N)o2)cc1` [3-(5-(4-(tert-butyl)phenyl)-1,3,4-oxadiazol-2-yl)-5-(1-(piperidin-4-yl)-1H-pyrazol-4-yl)pyridin-2-amine], the concentration for half-maximal inhibition (IC50) in test [1], in test [2] and in test [3] was under 500 nM in each case.
`CC(C)(C)c1ccc(-c2nnc(-c3cc(-c4cn[nH]c4)cnc3N)o2)cc1` [3-(5-(4-(tert-butyl)phenyl)-1,3,4-oxadiazol-2-yl)-5-(1H-pyrazol-4-yl)pyridin-2-amine]: the IC50 in test [1] is over 10000 nM; in test [2] it was 1000 to 10000 nM; in test [3], over 10000 nM.
Turning to `CN1CCC(n2cc(-c3cnc(N)c(-c4ncc(-c5ccc(Cl)cc5)o4)c3)cn2)CC1` [3-(5-(4-chlorophenyl)oxazol-2-yl)-5-(1-(1-methylpiperidin-4-yl)-1H-pyrazol-4-yl)pyridin-2-amine], the IC50 in test [1], in test [2] and in test [3] was under 500 nM throughout.
Take `Nc1ncc(-c2cnn(C3CCNCC3)c2)cc1-c1ncc(-c2ccc(Cl)cc2)o1` [3-(5-(4-chlorophenyl)oxazol-2-yl)-5-(1-(piperidin-4-yl)-1H-pyrazol-4-yl)pyridin-2-amine]: the IC50 in test [1], in test [2] and in test [3] was under 500 nM throughout.
Turning to `Nc1ncc(-c2cnn(C3CCCCC3)c2)cc1-c1ncc(-c2ccc(Cl)cc2)o1` [3-(5-(4-chlorophenyl)oxazol-2-yl)-5-(1-cyclohexyl-1H-pyrazol-4-yl)pyridin-2-amine], the IC50 in test [1], in test [2] and in test [3] was over 10000 nM each time.
In the case of `Nc1ncc(-c2cnn(C3CCNCC3)c2)cc1-c1nnc(-c2ccc(F)cc2)o1` [3-(5-(4-fluorophenyl)-1,3,4-oxadiazol-2-yl)-5-(1-(piperidin-4-yl)-1H-pyrazol-4-yl)pyridin-2-amine], the IC50 in test [1], in test [2] and in test [3] was under 500 nM throughout.
In the case of `Nc1ncc(-c2cn[nH]c2)cc1-c1nnc(-c2ccc(F)cc2)o1` [3-(5-(4-fluorophenyl)-1,3,4-oxadiazol-2-yl)-5-(1H-pyrazol-4-yl)pyridin-2-amine], the IC50 in test [1] was under 500 nM; in test [2], under 500 nM; in test [3] it was 500 to 1000 nM.
For the molecule `Nc1ncc(-c2cnn(C3CCNCC3)c2)cc1-c1nnc(CC2CC2)o1` [3-(5-(cyclopropylmethyl)-1,3,4-oxadiazol-2-yl)-5-(1-(piperidin-4-yl)-1H-pyrazol-4-yl)pyridin-2-amine], the IC50 in test [1], in test [2] and in test [3] was under 500 nM each time.
As to `Nc1ncc(-c2cnn(C3CCNCC3)c2)cc1-c1nnc(Cc2ccccc2)o1` [3-(5-benzyl-1,3,4-oxadiazol-2-yl)-5-(1-(piperidin-4-yl)-1H-pyrazol-4-yl)pyridin-2-amine], the IC50 in test [1], in test [2] and in test [3] was under 500 nM each time.
Take `Nc1ncc(-c2cnn(C3CCNCC3)c2)cc1-c1noc(-c2ccccc2)n1` [3-(5-phenyl-1,2,4-oxadiazol-3-yl)-5-(1-(piperidin-4-yl)-1H-pyrazol-4-yl)pyridin-2-amine]: the IC50 in test [1], in test [2] and in test [3] was under 500 nM in each case.
